Source: patent US6706291B1, “Poultry producibility improver and poultry producibility improvement method” (Taiyo Kagaku Co., Ltd., priority 2001, dated 2004)

Legend:
[1] = test system: eggs of White Leghorn laying hens; experiment: Test Example 1: Haugh unit and vitamin E content of eggs during storage; format: in vivo, chicken; details: for Haugh Unit / Vitamin E Content: eggs collected after 4 months
Experimental: Here, the term “Haugh unit” mentioned above refers to an index showing an extent of deterioration of thick albumen and is defined as the numeral calculated using the equation: […]
wherein H is a height (mm) of thick albumen; and W is an egg weight (g).
Furthermore, after 4 months from initiation of the test, 20 eggs each were collected from each poultry house. Haugh unit and vitamin E content were determined on the day of collection for 10 of the eggs, and after 2 weeks of storage at 4° C. for the remaining 10 eggs, respectively.

[2] = test system: White Cornish edible chickens; experiment: Test Example 3: K value, TBA value, POV value of chicken meat after storage; format: in vivo; details: for K Value of Chicken Meat after 10 Days of Storage: storage at 4° C.
From the text: In the present invention, the expression “keeping freshness of chicken meat” refers to suppression of an increase during storage in a numerical value, such as K value (ratio of inosine and hypoxanthine content to the sum of ATP, ADP, AMP, IMP, inosine and hypoxanthine contents in chicken meat as expressed in percentage), VBN value (a total amount of volatile basic substances, such as ammonia and trimethylamine, in chicken meat), TMA value (trimethylamine content in chicken meat) and polyamine content (total amount of decarboxylated products of free amino acids, such as putrescine, cadaverine, agmatine, histamine, tyramine, tryptamine and spermidine, in chicken meat), metmyoglobin formation ratio (ratio of myoglobin oxidized to metmyoglobin in muscular tissue of chicken meat), TBA value (ratio of fatty acids oxidized to fatty acids in chicken meat), POV value (peroxide value: ratio of oil or fat oxidized in chicken meat), and bacterial cell count (number of bacterial cells in chicken meat). In the present invention, it is preferable that at least one selected from the group consisting of K value, TBA value and POV value is used as an index for keeping freshness of chicken meat. Because the K value is most generally used as an index for freshness, it is more preferable to use the K value as an index for keeping freshness of chicken meat. White Cornish edible chickens were bred for 7 weeks from newly-hatched chickens. The hatched chickens were divided into 17 groups, the groups AA to QQ of 200 chickens per group. […] The edible chickens were fed with a commercially available formula feed for edible chickens, and allowed to take feed and water ad libitum. […] The liveability is shown in Table 17 and the weekly body weight gain in Table 18, respectively. […] Furthermore, changes in the TBA value and in the POV value of each of the breast meat, the leg meat and the chicken fat after storage were determined in the same manner. The cholesterol content is shown in Table 19, the change in the K value after storage in Table 20, the change in the TBA value after storage in Table 21, and the change in the POV value after storage in Table 22, respectively.

[3] = test system: White Cornish edible chickens; experiment: Test Example 3: cholesterol content of breast meat, leg meat and chicken fat; format: in vivo
From the text: (§1) White Cornish edible chickens were bred for 7 weeks from newly-hatched chickens. The hatched chickens were divided into 17 groups, the groups AA to QQ of 200 chickens per group. […] The edible chickens were fed with a commercially available formula feed for edible chickens, and allowed to take feed and water ad libitum. […] The liveability is shown in Table 17 and the weekly body weight gain in Table 18, respectively. […] Furthermore, changes in the TBA value and in the POV value of each of the breast meat, the leg meat and the chicken fat after storage were determined in the same manner. The cholesterol content is shown in Table 19, the change in the K value after storage in Table 20, the change in the TBA value after storage in Table 21, and the change in the POV value after storage in Table 22, respectively.

[4] = test system: White Cornish edible chickens; experiment: Test Example 3: liveability and weekly body weight gain of edible chickens; format: in vivo, chicken
From the text: as §1

[5] = test system: eggs of Isabrown laying hens; experiment: Test Example 2: DHA, EPA, vitamin E content and Haugh unit of eggs during storage; format: in vivo, chicken; details: for EPA Content / Haugh Unit / Vitamin E Content / DHA Content: eggs after 4 months; for DHA Content: feed with fish oil and vitamin E
Experimental: Isabrown laying hens were bred in poultry houses of the windless vertical 2-shelf cage type. Seventeen poultry houses a to q (10,000 hens/poultry house) were set, and a field test concerning suppression of a decrease in highly unsaturated fatty acid content during storage of eggs laid by laying hens was carried out. […] In addition, the laying hens were fed with a feed prepared by adding 2 kg of a fish oil and 10 g of vitamin E to 100 kg of a cormnercially available feed for laying hens. In addition, the laying hens were allowed to take water ad libitum.
After 4 months from initiation of the test, 20 eggs each were collected from each poultry house. DHA content and EPA content of the eggs, as indices for highly unsaturated fatty acid, were determined on the day of collection for 10 of the eggs, and after 2 weeks of storage at 4° C. for the remaining 10 eggs, respectively. Vitamin E content and Haugh unit were also determined. A change in the DHA content, a change in the EPA content, a change in the vitamin E content, and a change in the Haugh unit are shown in Tables 12, 13, 14 and 15, respectively.

[6] = test system: White Leghorn laying hens; experiment: Test Example 1: field test on producibility of laying hens (liveability, egg production indices); format: in vivo, chicken; details: for Liveability: additive in feed entire breeding period; for Number of Eggs Produced / Weight of Produced Eggs: 30,000 hens/poultry house
Experimental: White Leghorn laying hens at 121 days of age were housed in poultry houses of the windless vertical 6-shelf cage type and bred therein for 1 year. Eighteen poultry houses A to R (30,000 hens/poultry house) were set, and a field test concerning improvement in producibility by laying hens was carried out.
The laying hens were fed with a commercially available formula feed for laying hens, and allowed to take water ad libitum.
As indices for the producibility, there were obtained a liveability, a rate of laying, each egg weight and a weight of eggs produced per day, each item being at 4 months after initiation of the test, and a total number of eggs produced and a total egg weight during the 4-month period from initiation of the test. The same items were also determined at 8 and 12 months after initiation of the test. […] In the following tables, the indications “4M, 8M, 12M” stand for 4 months, 8 months, and 12 months after initiation of the test, respectively.

[7] = After 2 Weeks of Storage at 4° C.
[8] = Immediately After Egg Production

Substance: (−)-epigallocatechin gallate
- Effect on decrease in Haugh unit and vitamin E content during egg storage, in words ([1]; 2 weeks of storage at 4° C.): no effect was found
- Haugh Unit [1, 7]: 79.9
- Vitamin E Content [1, 7]: 2.0 mg based on 100 g of egg yolk solution
- Haugh Unit [1, 8]: 98.0
- Vitamin E Content [1, 8]: 3.1 mg based on 100 g of egg yolk solution
- Change in POV Value after 10 Days Storage ([2]; Breast Meat): 1.52
- Change in TBA Value after 10 Days Storage ([2]; Breast Meat): 0.44
- K Value of Chicken Meat after 10 Days of Storage ([2]; Breast Meat): 55.3
- Change in POV Value after 10 Days Storage ([2]; Chicken Fat): 1.80
- Change in TBA Value after 10 Days Storage ([2]; Chicken Fat): 0.42
- Change in POV Value after 10 Days Storage ([2]; Leg Meat): 1.53
- Change in TBA Value after 10 Days Storage ([2]; Leg Meat): 0.40
- K Value of Chicken Meat after 10 Days of Storage ([2]; Leg Meat): 55.4
- Cholesterol Content ([3]; Breast Meat): 72.0 mg based on 100 g of chicken meat or chicken fat
- Cholesterol Content ([3]; Chicken Fat): 227.6 mg based on 100 g of chicken meat or chicken fat
- Cholesterol Content ([3]; Leg Meat): 86.0 mg based on 100 g of chicken meat or chicken fat
- Weekly Body Weight Gain ([4]; after breeding for 7 weeks): 462.5 g
- Liveability ([4]; after breeding for 7 weeks, 200 chickens per group): 96.33%
- Effect on liveability, weekly body weight gain, cholesterol content, K, TBA and POV values, in words ([4]; all indices of Test Example 3): no effect was found
- Effect on decrease in DHA, EPA, vitamin E content and Haugh unit during egg storage, in words ([5]; 2 weeks of storage at 4° C.): no effect was found
- EPA Content [5, 7]: 84.0 mg based on 100 g of egg yolk solution
- Haugh Unit [5, 7]: 80.9
- Vitamin E Content [5, 7]: 1.7 mg based on 100 g of egg yolk solution
- EPA Content [5, 8]: 103.8 mg based on 100 g of egg yolk solution
- Haugh Unit [5, 8]: 96.5
- Vitamin E Content [5, 8]: 3.0 mg based on 100 g of egg yolk solution
- DHA Content [5, 7]: 1,344.0 mg based on 100 g of egg yolk solution
- DHA Content [5, 8]: 1,493.1 mg based on 100 g of egg yolk solution
- Each Egg Weight ([6]; 4M after initiation of test): 58.6 g
- Rate of Egg Production ([6]; 4M after initiation of test): 92.3%
- Weight of Eggs Produced Per Day ([6]; 4M after initiation of test): 53.97 g
- Liveability ([6]; 4M after initiation of test): 98.90%
- Number of Eggs Produced ([6]; 4M): 295,589 ct
- Weight of Produced Eggs ([6]; 4M): 17,321.5 kg
- Each Egg Weight ([6]; 8M after initiation of test): 61.7 g
- Rate of Egg Production ([6]; 8M after initiation of test): 82.9%
- Weight of Eggs Produced Per Day ([6]; 8M after initiation of test): 51.05 g
- Liveability ([6]; 8M after initiation of test): 97.81%
- Number of Eggs Produced ([6]; 8M): 714,941 ct
- Weight of Produced Eggs ([6]; 8M): 44,111.9 kg
- Each Egg Weight ([6]; 12M after initiation of test): 63.1 g
- Rate of Egg Production ([6]; 12M after initiation of test): 72.9%
- Weight of Eggs Produced Per Day ([6]; 12M after initiation of test): 47.68 g
- Liveability ([6]; 12M after initiation of test): 95.02%
- Number of Eggs Produced ([6]; 12M): 1,054,111 ct
- Weight of Produced Eggs ([6]; 12M): 66,514.4 kg
- Effect on producibility indices (liveability, rate of egg production, egg weight, eggs produced), in words ([6]; compared with poultry house Q given only an ordinary feed / houses H to R): an effect of addition of these additives was not found
